Assay results taken from ChEMBL document CHEMBL1201862, “PubChem BioAssay data set” (2004).
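96-well plates; 48 h exposure; 5 concentrations. Endpoints by linear interpolation between flanking doses. Not reached: highest tested concentration assigned. Here, GI50 denotes the concentration required for 50% inhibition of growth.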 The source made the active and inactive calls. No stated cut-off is given here; in the data, active = GI50 up to about 1.1 µM and inactive = higher.

Assays:
Experiment in all cases: NCI tumour cell line growth inhibition, 48 h
786-0 = test system: 786-0
A498 = test system: A498
A549 = test system: A549
ACHN = test system: ACHN
CAKI-1 = test system: CAKI-1
CCRF-CEM = test system: CCRF-CEM
COLO 205 = test system: COLO 205
DLD-1 = test system: DLD-1
DMS-114 = test system: DMS-114
DMS-273 = test system: DMS-273
EKVX = test system: EKVX
HCC 2998 = test system: HCC 2998
HCT-116 = test system: HCT-116
HCT-15 = test system: HCT-15
HL-60 = test system: HL-60
HOP-18 = test system: HOP-18
HOP-62 = test system: HOP-62
HOP-92 = test system: HOP-92
HT-29 = test system: HT-29
IGROV-1 = test system: IGROV-1
K562 = test system: K562
KM-20L2 = test system: KM-20L2
KM12 = test system: KM12
LOX IMVI = test system: LOX IMVI
LXFL 529 = test system: LXFL 529
M14 = test system: M14
M19-MEL = test system: M19-MEL
MOLT-4 = test system: MOLT-4
Malme-3M = test system: Malme-3M
NCI-H226 = test system: NCI-H226
NCI-H23 = test system: NCI-H23
NCI-H460 = test system: NCI-H460
NCI-H522 = test system: NCI-H522
OVCAR-3 = test system: OVCAR-3
OVCAR-4 = test system: OVCAR-4
OVCAR-5 = test system: OVCAR-5
OVCAR-8 = test system: OVCAR-8
RPMI-8226 = test system: RPMI-8226
RXF 393 = test system: RXF 393
SF-268 = test system: SF-268
SF-295 = test system: SF-295
SF-539 = test system: SF-539
SK-MEL-28 = test system: SK-MEL-28
SK-MEL-2 = test system: SK-MEL-2
SK-MEL-5 = test system: SK-MEL-5
SK-OV-3 = test system: SK-OV-3
SN12C = test system: SN12C
SNB-19 = test system: SNB-19
SNB-75 = test system: SNB-75
SNB-78 = test system: SNB-78
SR = test system: SR
SW-620 = test system: SW-620
TK-10 = test system: TK-10
U-251 = test system: U-251
UACC-257 = test system: UACC-257
UACC-62 = test system: UACC-62
UO-31 = test system: UO-31
XF498 = test system: XF498
RXF 631 = test system: RXF 631

In the case of `Oc1ccc(-c2c3ccccc3c(-c3ccc(O)cc3)c3ccccc23)cc1`, the GI50 (786-0) is reported as > 100 µM (inactive), the GI50 (A498) is reported as > 100 µM (inactive) and the GI50 (A549) is reported as > 100 µM (inactive). For the same compound, the GI50 (ACHN) was 89.9 µM (inactive), the GI50 (CAKI-1) was > 100 µM (inactive) and the GI50 (CCRF-CEM) was > 100 µM (inactive). The GI50 (COLO 205) was > 100 µM (inactive), the GI50 (DLD-1) was > 100 µM (inactive) and the GI50 (DMS-114) was > 100 µM (inactive). The GI50 (DMS-273) was > 100 µM (inactive), the GI50 (EKVX) was > 100 µM (inactive) and the GI50 (HCC 2998) was > 100 µM (inactive). The GI50 (HCT-116) was 87.5 µM (inactive), the GI50 (HCT-15) was over 100 µM and the GI50 (HL-60) was > 100 µM (inactive). The GI50 (HOP-18) was > 100 µM (inactive), the GI50 (HOP-62) was > 100 µM (inactive) and the GI50 (HOP-92) was > 100 µM (inactive). The GI50 (HT-29) was > 100 µM (inactive), the GI50 (IGROV-1) was > 100 µM (inactive) and the GI50 (K562) was > 100 µM (inactive). For the same compound, the GI50 (KM-20L2) was > 100 µM (inactive), the GI50 (KM12) was > 100 µM (inactive) and the GI50 (LOX IMVI) was 60.5 µM (inactive). The GI50 (LXFL 529) was 91.6 µM (inactive), the GI50 (M14) was > 100 µM (inactive) and the GI50 (M19-MEL) was > 100 µM (inactive). For the same compound, the GI50 (MOLT-4) was > 100 µM (inactive), the GI50 (Malme-3M) was > 100 µM (inactive) and the GI50 (NCI-H226) was > 100 µM (inactive). The GI50 (NCI-H23) was > 100 µM (inactive), the GI50 (NCI-H460) was > 100 µM (inactive) and the GI50 (NCI-H522) was > 100 µM (inactive). The GI50 (OVCAR-3) was > 100 µM (inactive), the GI50 (OVCAR-4) was > 100 µM (inactive) and the GI50 (OVCAR-5) was > 100 µM (inactive). For the same compound, the GI50 (OVCAR-8) was > 100 µM (inactive), the GI50 (RPMI-8226) was 75.2 µM (inactive) and the GI50 (RXF 393) was > 100 µM (inactive). The GI50 (SF-268) was > 100 µM (inactive), the GI50 (SF-295) was 84.1 µM (inactive) and the GI50 (SF-539) was > 100 µM (inactive). For the same compound, the GI50 (SK-MEL-28) was > 100 µM (inactive), the GI50 (SK-MEL-2) was > 100 µM (inactive) and the GI50 (SK-MEL-5) was > 100 µM (inactive). For the same compound, the GI50 (SK-OV-3) was > 100 µM (inactive), the GI50 (SN12C) was > 100 µM (inactive) and the GI50 (SNB-19) was > 100 µM (inactive). For the same compound, the GI50 (SNB-75) was 39.8 µM (inactive), the GI50 (SNB-78) was > 100 µM (inactive) and the GI50 (SR) was 64.3 µM (inactive). The GI50 (SW-620) was > 100 µM (inactive), the GI50 (TK-10) was > 100 µM (inactive) and the GI50 (U-251) was > 100 µM (inactive). For the same compound, the GI50 (UACC-257) was > 100 µM (inactive), the GI50 (UACC-62) was 41 µM (inactive) and the GI50 (UO-31) was > 100 µM (inactive). For the same compound, the GI50 (XF498) was > 100 µM (inactive).
`Nc1ncnc2sc(Nc3ccccc3)nc12` was tested, and the GI50 (786-0) was 26.5 µM (inactive), the GI50 (A549) was > 100 µM (inactive) and the GI50 (ACHN) was 12.3 µM (inactive). The GI50 (CAKI-1) was 55.5 µM (inactive), the GI50 (COLO 205) was > 100 µM (inactive) and the GI50 (DLD-1) was > 100 µM (inactive). The GI50 (DMS-273) was > 100 µM (inactive), the GI50 (HCC 2998) was > 100 µM (inactive) and the GI50 (HCT-15) was over 100 µM. For the same compound, the GI50 (HL-60) was 2.54 µM (inactive), the GI50 (HOP-62) was 81.7 µM (inactive) and the GI50 (HOP-92) was 77.1 µM (inactive). The GI50 (HT-29) was 7.28 µM (inactive), the GI50 (IGROV-1) was 32.2 µM (inactive) and the GI50 (K562) was 22.6 µM (inactive). For the same compound, the GI50 (KM-20L2) was 43.8 µM (inactive), the GI50 (KM12) was > 100 µM (inactive) and the GI50 (LOX IMVI) was 99.3 µM (inactive). The GI50 (LXFL 529) was > 100 µM (inactive), the GI50 (M14) was 92 µM (inactive) and the GI50 (M19-MEL) was > 100 µM (inactive). For the same compound, the GI50 (MOLT-4) was > 100 µM (inactive), the GI50 (Malme-3M) was > 100 µM (inactive) and the GI50 (NCI-H226) was > 100 µM (inactive). For the same compound, the GI50 (NCI-H23) was 48.3 µM (inactive), the GI50 (NCI-H460) was > 100 µM (inactive) and the GI50 (NCI-H522) was 28 µM (inactive). For the same compound, the GI50 (OVCAR-3) was > 100 µM (inactive), the GI50 (OVCAR-4) was 93.3 µM (inactive) and the GI50 (OVCAR-5) was > 100 µM (inactive). For the same compound, the GI50 (OVCAR-8) was > 100 µM (inactive), the GI50 (RPMI-8226) was > 100 µM (inactive) and the GI50 (RXF 631) was 9.86 µM (inactive). For the same compound, the GI50 (SF-268) was > 100 µM (inactive), the GI50 (SF-295) was > 100 µM (inactive) and the GI50 (SF-539) was > 100 µM (inactive). For the same compound, the GI50 (SK-MEL-28) was > 100 µM (inactive), the GI50 (SK-MEL-2) was > 100 µM (inactive) and the GI50 (SK-OV-3) was 46.2 µM (inactive). The GI50 (SN12C) was 80.4 µM (inactive), the GI50 (SNB-19) was > 100 µM (inactive) and the GI50 (SNB-75) was 29.6 µM (inactive). For the same compound, the GI50 (SNB-78) was > 100 µM (inactive), the GI50 (SR) was 38 µM (inactive) and the GI50 (SW-620) was > 100 µM (inactive). The GI50 (TK-10) was 46.9 µM (inactive), the GI50 (U-251) was 56.6 µM (inactive) and the GI50 (UACC-257) was > 100 µM (inactive). For the same compound, the GI50 (UACC-62) was > 100 µM (inactive), the GI50 (UO-31) was 45.8 µM (inactive) and the GI50 (XF498) was > 100 µM (inactive).
`Cc1ccc(/C=C/C(=O)c2sc(-c3nc(C)c(C(=O)/C=C/c4ccc(C)cc4)s3)nc2C)cc1` was tested, and the GI50 (786-0) was > 100 µM (inactive), the GI50 (A498) was > 100 µM (inactive) and the GI50 (A549) was > 100 µM (inactive). For the same compound, the GI50 (ACHN) was > 100 µM (inactive), the GI50 (CAKI-1) was > 100 µM (inactive) and the GI50 (CCRF-CEM) was > 100 µM (inactive). The GI50 (COLO 205) was > 100 µM (inactive), the GI50 (DLD-1) was > 100 µM (inactive) and the GI50 (DMS-114) was > 100 µM (inactive). The GI50 (DMS-273) was > 100 µM (inactive), the GI50 (EKVX) was > 100 µM (inactive) and the GI50 (HCC 2998) was > 100 µM (inactive). The GI50 (HCT-15) was over 100 µM, the GI50 (HL-60) was > 100 µM (inactive) and the GI50 (HOP-18) was > 100 µM (inactive). The GI50 (HOP-62) was > 100 µM (inactive), the GI50 (HOP-92) was > 100 µM (inactive) and the GI50 (HT-29) was > 100 µM (inactive). The GI50 (IGROV-1) was > 100 µM (inactive), the GI50 (K562) was > 100 µM (inactive) and the GI50 (KM-20L2) was > 100 µM (inactive). The GI50 (KM12) was > 100 µM (inactive), the GI50 (LOX IMVI) was > 100 µM (inactive) and the GI50 (M19-MEL) was > 100 µM (inactive). For the same compound, the GI50 (MOLT-4) was > 100 µM (inactive), the GI50 (Malme-3M) was > 100 µM (inactive) and the GI50 (NCI-H226) was > 100 µM (inactive). The GI50 (NCI-H23) was > 100 µM (inactive), the GI50 (NCI-H460) was > 100 µM (inactive) and the GI50 (NCI-H522) was 97.5 µM (inactive). For the same compound, the GI50 (OVCAR-3) was > 100 µM (inactive), the GI50 (OVCAR-5) was > 100 µM (inactive) and the GI50 (OVCAR-8) was > 100 µM (inactive). The GI50 (RPMI-8226) was > 100 µM (inactive), the GI50 (RXF 393) was > 100 µM (inactive) and the GI50 (RXF 631) was > 100 µM (inactive). The GI50 (SF-268) was > 100 µM (inactive), the GI50 (SF-295) was > 100 µM (inactive) and the GI50 (SF-539) was > 100 µM (inactive). For the same compound, the GI50 (SK-MEL-28) was > 100 µM (inactive), the GI50 (SK-MEL-2) was > 100 µM (inactive) and the GI50 (SK-MEL-5) was > 100 µM (inactive). For the same compound, the GI50 (SK-OV-3) was > 100 µM (inactive), the GI50 (SN12C) was > 100 µM (inactive) and the GI50 (SNB-75) was 86.5 µM (inactive). For the same compound, the GI50 (SNB-78) was > 100 µM (inactive), the GI50 (SW-620) was > 100 µM (inactive) and the GI50 (TK-10) was > 100 µM (inactive). The GI50 (U-251) was > 100 µM (inactive), the GI50 (UACC-257) was > 100 µM (inactive) and the GI50 (UACC-62) was > 100 µM (inactive). The GI50 (UO-31) was > 100 µM (inactive).
